Results published in PMC12030253, “New Temporin A Analogues Modified in Positions 1 and 10—Synthesis and Biological Studies” (Pharmaceutics, 2025).
Converted amounts (≈) assume the structure as drawn. “And” between values parts separate entries of the source, which are not always exact repeats. Equal entries are not always repeated. Where two headings read alike, the source gives them in different places. Square brackets hold non-standard residues; d marks the D form. Ends that are not written are not given here. Peptide text beside a SMILES is read from it. Phe(4-F) = N[C@@H](Cc1ccc(F)cc1)C(=O)O

Experiments:
[1] = test system: MDA-MB-231 cells; assay type: cell-based, human; details: 72 h
Procedure: (§1) Mouse embryonic fibroblasts (BALB 3T3 clone A31), human breast epithelial cells (MCF-12F), luminal A breast cancer (MCF-7), and basal B-type breast cancer (MDA-MB-231) were used in in vitro experiments. Cell cultures were purchased from the American Type Cultures Collection (ATCC, Manassas, VA, USA). Cells were cultured in a growth medium (DMEM-4.5 g/L glucose), 10% FBS, and antibiotics (Sigma-Aldrich, Schnelldorf, Germany). Cells were incubated at 5% CO2, 37 °C, and 95% humidity. Plastic flasks (75 cm^2) were used for the cell culture (Biologix, Lenexa, KS, USA).
(§2) The antiproliferative activity of the peptide analogues was determined by an MTT assay. Normal epithelial cells (MCF-12F) and tumor cell lines (MCF-7 and MDA-MB-231) were used in the in vitro experiments. Cells were plated at 1 × 10^3 cells/100 µL/well in 96-well microplates. […] The optical density of the formazan was measured at λ = 540 nm using a microplate reader. Antiproliferative activities were expressed as IC50 values. The statistical analysis of the results was performed using one-way ANOVA, followed by Bonferroni’s post hoc test.

[2] = test system: MCF-7 cells; assay type: cell-based, human; details: 72 h
Procedure: as §1, §2

[3] = test system: MCF-12F cells; assay type: cell-based, human; details: for IC50: 72 h
Procedure: as §1
The antiproliferative activity of the peptide analogues was determined by an MTT assay. Normal epithelial cells (MCF-12F) and tumor cell lines (MCF-7 and MDA-MB-231) were used in the in vitro experiments. Cells were plated at 1 × 10^3 cells/100 µL/well in 96-well microplates. After 24 h of incubation in a thermostat under standard conditions, the cells were treated with test compounds for 72 h. The optical density of the formazan was measured at λ = 540 nm using a microplate reader. Antiproliferative activities were expressed as IC50 values. The statistical analysis of the results was performed using one-way ANOVA, followed by Bonferroni’s post hoc test.

[4] = test system: BALB 3T3 cells; assay: in vitro; assay type: cell-based, Mouse
Procedure: as §1
(§3) The safety testing was performed according to the OECD Guidelines for the Testing of Chemicals, Section 4, Test No. 432. Mouse embryonic fibroblasts (BALB 3T3, clone A31) were used to perform the in vitro cytotoxicity and phototoxicity tests. Cells were plated at 1 × 10^4 cells per well in 96-well cell culture plates. The cells were incubated in a thermostat for 24 h before the test peptide analogues were added. […] Working concentrations (4–1000 µM) of peptides were obtained by diluting the stock solution with a culture medium. The phototoxicity test was performed using 96-well microplates. The microplates were irradiated with a dose of 2.4 J/cm^2 using a solar light simulator Helios-iO (SERIC Ltd., Tokyo, Japan). After treatment with a neutral red (NR) medium (NR dissolved in culture medium, 34 µg/mL), washing, and application of the NR Desorb solution (freshly prepared 49 parts water + 50 parts ethanol + 1 part acetic acid), the absorption was measured on a microplate reader at a wavelength of 540 nm. Cytotoxicity was expressed as CC50 values.

[5] = in vitro; assay type: cell-based, Mouse; details: mouse
Procedure: as §1, §3

[6] = test system: Bacillus subtilis NBIMCC 3562; assay type: cell-based
Procedure: (§4) In order to evaluate the antimicrobial activity, the parent peptide Temporin A and newly synthesized analogues were tested against model strains Escherichia coli NBIMCC 8785, Pseudomonas aeruginosa NBIMCC 3700, Bacillus subtilis NBIMCC 3562, Arthrobacter oxydans NBIMCC 9333, and Candida albicans NBIMCC 74. The strains were purchased from the National Bank for Industrial Microorganisms and Cell Cultures (NBIMCC, Sofia, Bulgaria). They were cultured as follows: • E. coli 8785 in Luria–Bertani (LB, HiMedia, Mumbai, India) agar medium; • B. subtilis 3562 in nutrient broth (NB, HiMedia, Mumbai, India) agar medium; • P. aeruginosa 3700 and A. oxydans 9333 in Meat Peptone agar (MPA) medium; • C. albicans 74 in Yeast Mold (YM) agar medium.
(§5) The cultivation was performed in an incubator shaker ES-20/60 (Biosan, Riga, Latvia), set for B. subtilis 3562, A. oxydans 9333, and C. albicans 74 at 30 °C, and for E. coli 8785 and P. aeruginosa 3700 at 37 °C, for 24 h with 120 rpm. The microbial cultures were then brought to a 0.5 McFarland turbidity using a Grant-bio DEN-1B densitometer (Grant Instruments, Nether Alderley, United Kingdom).
(§6) The broth dilution method was employed to estimate the MIC of the peptides. In total, 10 mg/mL peptide stock solutions in 10% EtOH/H2O were prepared. Microbial culture in the corresponding media and peptide solutions in a concentration range from 0 to 320 µg/mL (concentration levels: 0, 10, 20, 40, 80, 160, and 320 µg/mL) were placed in 96-well U-shaped-bottom polystyrene plates (Deltalab S.L., Barcelona, Spain). In addition, 10% EtOH/H2O control, diluted in the nutrient medium, was added in separate wells. Furthermore, the microplates were incubated under aerobic conditions at the desired temperature for 24 h. […] The absorbance was measured at 630 nm (microplate reader PKL PPC 142, Italy). In total, 10 μL solution with concentrations greater than or equal to the MIC value was placed on the corresponding solid nutrient medium in order to evaluate a potential minimum bactericidal concentration (MBC) and minimal fungicidal concentration (MFC). Furthermore, the Petri dishes were incubated for 24 h at either 30 or 37 °C. Every experiment was carried out three times.

[7] = test system: Arthrobacter oxydans NBIMCC 9333; assay type: cell-based; details: 24 h
Procedure: as §4, §5, §6

[8] = test system: Pseudomonas aeruginosa NBIMCC 3700; assay type: cell-based
Procedure: as §4, §5, §6

[9] = test system: Escherichia coli NBIMCC 8785; assay: Broth dilution MIC, E. coli; assay type: cell-based; set-up: key: NI—no inhibition observed; details: 0-320 µg/mL, 24 h
Procedure: as §4, §5
(§7) The broth dilution method was employed to estimate the MIC of the peptides. In total, 10 mg/mL peptide stock solutions in 10% EtOH/H2O were prepared. […] The absorbance was measured at 630 nm (microplate reader PKL PPC 142, Italy). […]

[10] = test system: Candida albicans NBIMCC 74; assay: Broth dilution MIC, C. albicans; assay type: cell-based; set-up: key: NI—no inhibition observed; details: 0-320 µg/mL, 24 h
Procedure: as §4, §5, §7

[11] = test system: Bacillus subtilis NBIMCC 3562; set-up: method as in PMID 38931840; details: 30 µg/disk, positive control with DTA; cited from earlier work
[12] = test system: Bacillus subtilis NBIMCC 3562; assay type: cell-based; details: 30 µg/disk, positive control on the plate of the peptide
Procedure: as §4, §5
(§8) The disk diffusion method was employed as an additional technique in order to determine the percentage of inhibition of the synthesized peptides compared to a chosen antibiotic, used as a positive control. The antibiotics used were gentamicin (10 µg/disk), chloramphenicol (30 µg/disk), and itraconazole (10 µg/disk). In total, 100 μL from each microbial culture was spread on LB/NB/MPA/YM agar plates. The plates were then incubated at the appropriate temperature for a period of 30 min intended for the penetration of the culture into the agar. […] The antimicrobial activity was assessed by measuring the diameter of the inhibition zones in mm. […] In addition, the percentage of inhibition was calculated as the correlation between the inhibition zone of the peptide (measured in mm) over the inhibition zone of the antibiotic (measured in mm) multiplied by 100.

[13] = test system: Arthrobacter oxydans NBIMCC 9333; set-up: method as in PMID 38931840; details: 10 µg/disk, positive control with DTA; cited from earlier work
[14] = test system: Escherichia coli NBIMCC 8785; set-up: method as in PMID 38931840; details: 10 µg/disk, positive control with DTA; cited from earlier work
[15] = test system: Pseudomonas aeruginosa NBIMCC 3700; set-up: method as in PMID 38931840; details: 10 µg/disk, positive control with DTA; cited from earlier work
[16] = test system: Escherichia coli NBIMCC 8785; assay type: cell-based; details: 10 µg/disk, positive control on the plate of the peptide
Procedure: as §4, §5, §8

[17] = test system: Pseudomonas aeruginosa NBIMCC 3700; assay type: cell-based; details: 10 µg/disk, positive control on the plate of the peptide
Procedure: as §4, §5, §8

[18] = broth dilution, 0-320 µg/mL, 24 h

## CC[C@H](C)[C@H](NC(=O)CNC(=O)[C@H](CO)NC(=O)[C@H](CC(C)C)NC(=O)[C@@H](NC(=O)[C@H](CCCNC(=N)N)NC(=O)CNC(=O)[C@@H](NC(=O)[C@H](CC(C)C)NC(=O)[C@@H]1CCCN1C(=O)[C@H](CC(C)C)NC(=O)[C@@H](N)Cc1ccc(F)cc1)[C@@H](C)CC)C(C)C)C(=O)N[C@@H](CC(C)C)C(N)=O [DT4F, Phe(4F)-LPLIGRVLSGILNH2] (H-[Phe(4-F)]LPLIGRVLSGIL-NH2)
[1]
  IC50: 32 ± 1.43 µM
[2]
  IC50: 20.3 ± 0.6 µM
[3]
  IC50: 41.8 ± 1.64 µM
[4]
  PIF (Photo-Irritation Factor): 1.4
[5]; Mean CC50 ± SD +Irr
  CC50: 40 ± 0.78 µM
[5]; Mean CC50 ± SD −Irr
  CC50: 55.4 ± 4.64 µM
[6]; NBIMCC 3562, 24 h
  MIC B. subtilis 3562: 80 µg/mL (≈ 56.5 µM)
[7]
  MIC A. oxydans 9333: 160 µg/mL (≈ 113 µM)
[8]; NBIMCC 3700, 24 h
  MIC P. aeruginosa 3700: 80 µg/mL (≈ 56.5 µM)

## YLPLIGRVLSGIL-NH2 [DTTyr1, Y-LPLIGRVLSGILNH2]
[9]
  MIC E. coli 8785: NI **
[1]
  IC50: 334 ± 3.72 µM
[2]
  IC50: 216 ± 10.3 µM
[3]
  IC50: 318 ± 9.79 µM
[4]
  PIF (Photo-Irritation Factor): 1.0
[5]; Mean CC50 ± SD +Irr
  CC50: 671 ± 12.2 µM
[5]; Mean CC50 ± SD −Irr
  CC50: 669 ± 13.4 µM
[6]; NBIMCC 3562, 24 h
  MIC B. subtilis 3562: 160 µg/mL
[7]
  MIC A. oxydans 9333: 320 µg/mL
[8]; NBIMCC 3700, 24 h
  MIC P. aeruginosa 3700: 320 µg/mL
[10]
  MIC C. albicans 74: NI **

## FLPLIGRVLTGIL-NH2 [DTThr, FLPLIGRVL-T-GILNH2]
[1]
  IC50: 136 ± 3.61 µM
[2]
  IC50: 98.6 ± 1.19 µM
[3]
  IC50: 165 ± 2.21 µM
[4]
  PIF (Photo-Irritation Factor): 1.0
[5]; Mean CC50 ± SD +Irr
  CC50: 188 ± 3.55 µM
[5]; Mean CC50 ± SD −Irr
  CC50: 183 ± 2.91 µM
[6]; NBIMCC 3562, 24 h
  MIC B. subtilis 3562: 160 µg/mL
[7]
  MIC A. oxydans 9333: 320 µg/mL
[8]; NBIMCC 3700, 24 h
  MIC P. aeruginosa 3700: 320 µg/mL

## O=C(N[C@H](CO)[C@H](O)c1ccc([N+](=O)[O-])cc1)C(Cl)Cl [Chloramphenicol, chloramphenicol]
[11]
  Inhibition zone B. subtilis 3562, antibiotic control: 26 mm
[12]
  Inhibition zone B. subtilis 3562, antibiotic control: 24 mm and 27 mm and 28 mm

## FLPLIGRVLYGIL-NH2 [DTTyr10, FLPLIGRVL-Y-GILNH2]
[9]
  MIC E. coli 8785: NI **
[1]
  IC50: 328.5 ± 2.62 µM
[2]
  IC50: 64.5 ± 3.93 µM
[3]
  IC50: 251 ± 11.8 µM
[3]; at 64.51 µM, non-tumorigenic cells
  Antiproliferative activity in MCF-12F at a single concentration: no antiproliferative activity was observed
[5]; Mean CC50 ± SD +Irr
  CC50: > 1000 µM
[5]; Mean CC50 ± SD −Irr
  CC50: > 1000 µM
[6]; [18]
  MIC B. subtilis 3562: 320 µg/mL
[7]; broth dilution, 0-320 µg/mL
  MIC A. oxydans 9333: 320 µg/mL
[8]; [18]
  MIC P. aeruginosa 3700: 320 µg/mL
[10]
  MIC C. albicans 74: NI **

## CNC(C)C1CCC(N)C(OC2C(N)CC(N)C(OC3OCC(C)(O)C(NC)C3O)C2O)O1 (centres unmarked) [Gentamicin, gentamicin]
[13]
  Inhibition zone A. oxydans 9333, antibiotic control: 18 mm
[14]
  Inhibition zone E. coli 8785, antibiotic control: 18 mm
[15]
  Inhibition zone P. aeruginosa 3700, antibiotic control: 17 mm
[16]
  Inhibition zone E. coli 8785, antibiotic control: 17.5 mm and 16.5 mm and 17 mm
[17]
  Inhibition zone P. aeruginosa 3700, antibiotic control: 17 mm and 18 mm and 16 mm
